Reference: publication PMC12030426, “Translational Pharmacokinetic-Pharmacodynamic Modeling of a Novel Oral Dihydroorotate Dehydrogenase (DHODH) Inhibitor, HOSU-53 (JBZ-001)” (Pharmaceutics, 2025)
“Also recorded” adds a separate entry of the source.

Tests used:
[1] = test system: plasma DHO; test: population PD model (indirect turnover, plasma DHO), dog; type: in vivo
Experimental: (§1) To develop the PK/PD models, a sequential approach was tested for dog data, involving the initial construction of the PK model, fixing the PK parameters with population estimated thetas and eta variances, and then estimating the PD parameters. For mouse and rat data, a simultaneous approach was employed, estimating PK and PD parameters concurrently, assuming log-normal distribution for both. To account for the delay in PD response that results from the inhibition of DHODH, the factor controlling the dissipation of the response, various modeling approaches were employed. One approach involved using an effect compartment model with an equilibrium half-life parameter ( ke0 ) to characterize the delay,
(§2) The final PK/PD model for both species was an indirect turnover model with degradation inhibition. The parameters for the final dog and mouse PK/PD models are presented in Table 3 and Supplementary Table S3, respectively.

[2] = test system: PXR; design: method as in PMID 38646934; conditions: cited from earlier work
[3] = design: method as in PMID 38646934; conditions: cited from earlier work
[4] = 28-day GLP repeat-dose toxicity study in rats
Experimental: A series of PK and PD studies was carried out using a range of single and repeat dosing regimens in rats, exploring variations in formulation and dosing schedules. The initial experiment evaluated the PK/PD profile following a single dose of 10 mg/kg PO and 3 mg/kg IV using 40% HPBCD. Building on the single-dose results, repeat dosing was investigated at 1 (both sexes), 3 (both sexes), 6 (females), and 10 (males) mg/kg (PO, QD) and 30 (both sexes) mg/kg (PO, BIWK) regimen in 40% HPBCD formulation. To extend the findings into a disease-relevant context, repeat dosing was evaluated for 14 days in a MOLM-13 xenograft model in the Sprague Dawley Rag2−/− Il2rg−/− (SRG) male rats, where doses of 1, 3, and 10 mg/kg (PO, QD) were administered, alongside 30 mg/kg biweekly (PO, BIWK).

[5] = 28-day GLP repeat-dose toxicity study in dogs
Experimental: The PK/PD characterization of HOSU-53 in beagle dogs was conducted across several studies. An initial single-dose PK/PD evaluation was carried out with male dogs receiving HOSU-53 (10 mg/kg, PO; 3 mg/kg, IV) in 40% HPBCD. Then, repeat-dose PK/PD over 7 days was assessed in male and female dogs with doses of 0.3, 1, and 3 mg/kg (PO, QD) in deionized water. […] Additional GLP toxicokinetic and toxicodynamic evaluations were performed, where dogs were dosed at 0.2, 0.6, and 1 mg/kg (PO, QD) for 28 days followed by a 14-day recovery period (Details in Supplementary Table S1).

[6] = test system: plasma DHO; test: correlation of plasma DHO exposure with efficacy, tolerability and toxicity in repeat dose studies; type: in vivo, rats, dogs, and tumor-bearing mice; conditions: based on preclinical experiments
Experimental: These GI toxicities are consistent with the high proliferative demand of intestinal epithelial cells, which rely on pyrimidine availability for DNA synthesis and repair. The No Observed Adverse Effect Levels (NOAELs) from the rat and dog GLP toxicity studies were then determined to be one dose level lower, which are 2.5 mg/kg (PO, QD) and 0.6 mg/kg (PO, QD), respectively. Based on repeat dose studies in rats, dogs, and tumor-bearing mice, efficacy, tolerability, and toxicity can be correlated with levels of the PD biomarker DHO in plasma.

[7] = test system: MOLM-13 cell line–derived xenograft; design: method as in PMID 38646934; conditions: combined with other front-line therapies; cited from earlier work
[8] = design: method as in PMID 38646934; conditions: cited from earlier work; remark: listed apart in the source
[9] = noncompartmental PK in dogs; type: in vivo
Text: (§3) Non-clinical PK of HOSU-53 has been studied and analyzed after single and multiple doses with noncompartmental analysis (NCA). […] F was similar between the two species, with mean values of approximately 60% and 50% in rats and dogs, respectively.

[10] = test system: plasma DHO; test: population PD model (indirect turnover, plasma DHO), mouse; type: in vivo
Experimental: as §1, §2

[11] = noncompartmental PK in rats; type: in vivo
Text: as §3

[12] = population PK model, dog; type: in vivo
Experimental: (§4) Population PK analyses were performed using nonlinear mixed-effects modeling implemented in Monolix software (Monolix Suite 2024R1, Antony, France). This approach utilizes the stochastic approximation of the expectation-maximization (SAEM) algorithm coupled with a Markov chain Monte Carlo (MCMC) method to optimize the likelihood. One- and two-compartment PK models incorporating zero- and first-order absorption with linear elimination were evaluated. Interindividual variability (IIV) in PK parameters was assumed to follow a log-normal distribution, except for bioavailability (F), which was modeled using a logit-normal distribution. An exponential model was applied, as described by the following equation: θi=θp×e^ηi where θi is the model predicted PK parameter for the ith animal, θp is the typical population PK parameter, and ηi is the random variable of normal distribution with mean zero and variance ω^2 .
(§5) Residual or random unexplained variability was evaluated using additive, proportional, and combined error models. For each model, several criteria were assessed, including the objective function value (OFV), Akaike Information Criterion (AIC), Bayesian Information Criterion (BIC), corrected Bayesian Information Criterion (BICc), and the precision of parameter estimates, expressed as residual standard errors.
During the development of the PK model for dogs, a two-compartment model was first constructed using IV data alone. […] This approach provided reasonable estimates for F and Ka, with acceptable RSE values (Table 3). […] The GOF plots for the final PK models of dog and mouse are presented in Figure 1 and Supplementary Figure S1, respectively.

[13] = thermodynamic solubility; type: physicochemical; conditions: pH 6.5; experimental data
Experimental: (§6) PBPK models were developed using PK-Sim v11.0 in rats and beagle dogs, and each was used to predict data in the other species, including mice. A base model was parameterized using lipophilicity, plasma protein binding, thermodynamic solubility, and pKa measured from in vitro studies. Half-life of HOSU-53 measured in beagle cryo-preserved hepatocytes was used along with hepatocyte incubation density within the In Vitro to In Vivo Extrapolation (IVIVE) tools in PK-Sim to estimate metabolic clearance in vivo [25]. Renal clearance of unbound plasma HOSU-53 was assumed to be driven solely by glomerular filtration rate (GFR). Various methods were used to calculate partition coefficients and cellular permeabilities in PK-Sim. PK predictions generated for each combination of calculation methods were compared to the mean observed IV profile, and the methods that best matched the observed data were selected. Ultimately, partition coefficients were calculated using the Rodgers and Rowland method, and cellular permeabilities were calculated using the charge-dependent Schmitt method. PK following oral administration of HOSU-53 was used to identify parameter values for intestinal permeability for the sodium and lysine salt forms administered in deionized (DI) water. […]

[14] = in vitro hepatic stability assay scaled by IVIVE, rat; type: in vitro ADME; conditions: scaled from in vitro hepatic stability assay
Experimental: as §6

[15] = noncompartmental PK in mice; type: in vivo
[16] = biological target: human DHODH (Homo sapiens, UniProt Q02127); design: method as in PMID 38646934; conditions: cell-free; read-out: IC50 in cell-free human DHODH inhibition assay; cited from earlier work
[17] = test system: PPARγ; conditions: cited from earlier work
[18] = pKa; type: physicochemical; conditions: experimental data
Experimental: as §6

[19] = test system: hERG ion channel; design: method as in PMID 38646934; conditions: cited from earlier work
[20] = population PK model, mouse; type: in vivo
Experimental: as §4, §5
The final structural PK models for both mouse and dog data were two-compartment disposition models with first-order absorption and linear elimination. We ultimately chose to exclude rat data from the population modeling effort, as described below in this section. The parameters for the final dog and mouse PK models are presented in Table 3 and Supplementary Table S3, respectively. All parameters were estimated with good precision, as indicated by the %RSE of the estimates. Proportional and combined error models were selected for the mouse and dog data, respectively.

Chain of human DHODH (Q02127 whole entry): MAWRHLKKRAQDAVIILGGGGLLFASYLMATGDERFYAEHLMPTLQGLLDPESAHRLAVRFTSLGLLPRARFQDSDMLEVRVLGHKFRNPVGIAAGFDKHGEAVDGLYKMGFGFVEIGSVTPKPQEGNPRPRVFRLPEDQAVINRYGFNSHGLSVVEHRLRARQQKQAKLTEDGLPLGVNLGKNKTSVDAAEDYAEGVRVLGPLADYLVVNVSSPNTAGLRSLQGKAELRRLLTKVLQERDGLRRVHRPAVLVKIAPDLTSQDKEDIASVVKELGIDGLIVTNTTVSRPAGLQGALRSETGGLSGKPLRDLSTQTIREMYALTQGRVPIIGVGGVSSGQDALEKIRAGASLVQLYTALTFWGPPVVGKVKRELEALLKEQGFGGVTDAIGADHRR

SMILES: CCCCOc1cccc(-c2ccc(-c3cc(C(=O)O)c4cc(F)ccc4n3)cc2)c1 [HOSU-53]
- IC50 ([1]; bootstrap point estimate): 80 nM
- Kout ([1]; bootstrap point estimate): 70 h⁻¹
- gamma ([1]; bootstrap point estimate): 1.86
- Kout ([1]; model estimate (RSE%)): 52 (11.4) /h
- gamma ([1]; model estimate (RSE%)): 1.9 (1.6)
- IC50 ([1]; plasma HOSU-53 concentration, inhibition of DHO degradation, model estimate (RSE%)): 100 nM
- PXR induction [2]: does not induce PXR
- Ames mutagenicity [3]: negative
- adverse effects ([4]; male and female rats, 5 mg/kg PO, QD): decreased lymphoid cellularity in the thymus, mild-to-moderate decreases in lymphocyte counts, and lower thymus weights
- HNSTD or STD10 ([4]; rats): 5 mg/kg/day
- NOAEL ([4]; rats, PO, QD, 28-day GLP): 2.5 mg/kg
- maximum DHO concentration with no toxicity ([4]; rats, preclinical toxicokinetic data): ~ 2870 ng/mL
- human equivalent dose (HED) ([4]; scaled by body surface area from rats (divided by 6.2)): 0.8 mg/kg/day
- survival ([5]; all dogs, 28-day GLP study): survived until scheduled euthanasia
- HNSTD or STD10 ([5]; dogs): 0.6 mg/kg/day
- NOAEL ([5]; dogs, PO, QD, 28-day GLP): 0.6 mg/kg
- maximum DHO concentration with no toxicity ([5]; dogs, preclinical toxicokinetic data): ~ 5850 ng/mL
- heart rate and RR interval ([5]; female dogs, 1 mg/kg PO, QD, 1–2 h postdosing, weeks 1 and 4): lower heart rate and longer RR interval duration
- adverse effects ([5]; male and female dogs, 1 mg/kg PO, QD, 1 mg/kg): decreased food consumption, lower body weights, and adverse intestinal microscopic findings related to mucosal epithelial cell loss; also recorded: decreased food consumption, lower body weights, and adverse intestinal (colon, ileum, and/or jejunum) microscopic findings related to mucosal epithelial cell loss
- human equivalent dose (HED) ([5]; scaled by body surface area from dogs (divided by 1.8)): 0.3 mg/kg/day
- AUCtau,ss of DHO at which optimal efficacy is expected [6]: around 300 µM·h
- survival [7]: prolonged survival benefits
- micronucleus assay [8]: negative
- F ([9]; mean, NCA): ~50%
- dose proportionality of plasma levels ([9]; repeated oral dosing, dose range 0.3–3 mg/kg): dose-proportional manner
- IC50 ([10]; bootstrap point estimate): 1610 nM
- Kout ([10]; bootstrap point estimate): 127 h⁻¹
- gamma ([10]; bootstrap point estimate): 1.63
- Kout ([10]; model estimate (RSE %)): 155 (12.7) /h
- gamma ([10]; model estimate (RSE %)): 1.71 (0.1)
- IC50 ([10]; plasma HOSU-53 concentration, inhibition of DHO degradation, model estimate (RSE %)): 1550 nM
- F ([11]; mean, NCA): approximately 60%
- dose proportionality of plasma levels ([11]; repeated oral dosing, higher doses, dose range 3–10 mg/kg): less-than-dose-proportional manner
- F (%) ([12]; bootstrap point estimate): 0.67 fraction
- Ka ([12]; bootstrap point estimate): 1.55 h⁻¹
- F (%) ([12]; model estimate (RSE%)): 0.67 (2.8) %
- Ka ([12]; model estimate (RSE%)): 1.53 (12.6) /h
- CL/F ([12]; model estimate, fixed): 150 Fix mL/h
- Q ([12]; model estimate, fixed): 400 Fix mL/h
- V1 ([12]; model estimate, fixed): 980 Fix mL
- V2 ([12]; model estimate, fixed): 490 Fix mL
- Solubility [13]: 18.8 μg/mL (pH 6.5)
- Specific Clearance [14]: 7.29 min⁻¹
- mean T1/2 ([15]; NCA): 30 h
- dose proportionality of plasma levels ([15]; repeated oral dosing, higher doses, dose range 4–30 mg/kg): less-than-dose-proportional manner
- F ([15]; single IV 3 mg/kg and oral 10 mg/kg, NCA): 86%
- IC50 [16]: 0.95 nM
- PPARγ agonism potency, fold less than potency against MOLM-13 AML cells in cell viability assays [17]: 1500 ×
- pKa (Acid) [18]: 3.05 (Acid)
- pKa (Base) [18]: 1.19 (Base)
- hERG ion channel inhibition [19]: does not induce PXR or inhibit the hERG ion channel
- CL/F ([20]; bootstrap point estimate): 0.07 mL/h
- F (%) ([20]; bootstrap point estimate): 54%
- Ka ([20]; bootstrap point estimate): 1.2 h⁻¹
- Q ([20]; bootstrap point estimate): 1.6 mL/h
- V1 ([20]; bootstrap point estimate): 1.3 mL
- V2 ([20]; bootstrap point estimate): 1.1 mL
- CL/F ([20]; model estimate (RSE %)): 0.07 (5.0) mL/h
- F (%) ([20]; model estimate (RSE %)): 0.53 (0.02) %
- Ka ([20]; model estimate (RSE %)): 1.0 (0.02) /h
- Q ([20]; model estimate (RSE %)): 1.6 (1.7) mL/h
- V1 ([20]; model estimate (RSE %)): 1.2 (8.7) mL
- V2 ([20]; model estimate (RSE %)): 1.2 (5.3) mL
